Laboratory results as given in patent US20240374517A1, “LIPIODOL FORMULATION FOR TRANSARTERIAL CHEMOIMMUNOEMBOLIZATION” (Northwestern University, priority 2021, published 2024).

Test system: HepG2 cells
Assay: Dox uptake and cytotoxicity in HepG2 cells
Settings: with (20%) vs without (0%) PF127

COc1cccc2c1C(=O)c1c(O)c3c(c(O)c1C2=O)C[C@@](O)(C(=O)CO)C[C@@H]3O[C@H]1C[C@H](N)[C@H](O)[C@H](C)O1 [Dox, doxorubicin]
cytotoxicity of Dox (CCK-8, 48 hours): not affected | cellular uptake of Dox (Dox 10 μM, 30 and 60 minutes): not affected
